Assay results taken from paper PMC8029449 (ACS chemical neuroscience, 2021).

Tests used:
[1] = tested on: VEGFR2 phosphorylation at Y1175 in CAD cells; assay: In cell western for inhibition of VEGFR2 activation by VEGF-A165; format: cell-based, mouse; conditions: compounds at 12.5 μM, 1 nM VEGF-A165, 1 hour
VSV-eGFP-SARS-CoV-2 = format: cell-based, vesicular stomatitis virus; conditions: 25 µM

NC(N)=NCCC[C@H](NC(=O)c1sccc1NS(=O)(=O)c1cccc2nsnc12)C(=O)O [Compound A]
block of VEGF-A stimulated increased phosphorylation of VEGFR2 (pY1175) [1]: blocked | inhibition of VSV-eGFP-SARS-CoV-2 entry into cells (VSV-eGFP-SARS-CoV-2): ineffective
